Ten molecules from patent US7524844B2, “Dipeptidyl peptidase IV inhibitors, process for their preparation and compositions containing them” (Glenmark Pharmaceuticals S.A., priority 2004, dated 2009) can be followed below.

In this assay the target is T1, human recombinant Dipeptidyl peptidase IV enzyme (DPP-IV) (Homo sapiens, UniProt P27487).
T1 construct: purchased R&D Systems Inc. of Minneapolis, Minn
As to the kind of experiment: in-vitro DPP-IV assay (cleavage of AMC from Gly-Pro-AMC). The assay is classed as biochemical. The settings on record: human recombinant DPP-IV, Gly-Pro-AMC substrate, 30° C., 30 minutes; read-out: DPP-IV inhibition using human recombinant DPP-IV enzyme, IC50. On the procedure:
DPP-IV activity was determined by the cleavage rate of 7-amino-4-methyl coumarin (AMC) from the synthetic substrate Glycyl-Prolyl-AMC. In brief, the assay was conducted by adding 10 ng of human recombinant Dipeptidyl peptidase IV enzyme (DPP-IV, available commercially from R&D Systems Inc. of Minneapolis, Minn.) in 50 μl of the assay buffer (25 mM Tris, pH 7.4, 140 mM NaCl, 10 mM KCl, 1% BSA) to 96 well black flat bottom microtiter plates. The reaction was initiated by adding 50 μl of 100 μM substrate Gly-Pro-AMC. The incubation was carried out in the kinetic mode at 30° C. for 30 minutes. Fluorescence was measured using Fluorostar with an excitation filter of 380 nm and emission filter of 460 nm. Test compounds and solvent controls were added as 1 μl additions. A standard curve of free amino methyl coumarin (AMC) was generated using 0-100 μM AMC in the assay buffer. The curve generated, which was linear was used for the interpolation of catalytic activity.
Test compounds dissolved in DMSO at 5-6 concentrations were tested in duplicate along with the solvent control and blank samples. Percent inhibition was calculated at each concentration with respect to the solvent control sample (no test compound added). […]

T1 sequence (P27487 whole entry): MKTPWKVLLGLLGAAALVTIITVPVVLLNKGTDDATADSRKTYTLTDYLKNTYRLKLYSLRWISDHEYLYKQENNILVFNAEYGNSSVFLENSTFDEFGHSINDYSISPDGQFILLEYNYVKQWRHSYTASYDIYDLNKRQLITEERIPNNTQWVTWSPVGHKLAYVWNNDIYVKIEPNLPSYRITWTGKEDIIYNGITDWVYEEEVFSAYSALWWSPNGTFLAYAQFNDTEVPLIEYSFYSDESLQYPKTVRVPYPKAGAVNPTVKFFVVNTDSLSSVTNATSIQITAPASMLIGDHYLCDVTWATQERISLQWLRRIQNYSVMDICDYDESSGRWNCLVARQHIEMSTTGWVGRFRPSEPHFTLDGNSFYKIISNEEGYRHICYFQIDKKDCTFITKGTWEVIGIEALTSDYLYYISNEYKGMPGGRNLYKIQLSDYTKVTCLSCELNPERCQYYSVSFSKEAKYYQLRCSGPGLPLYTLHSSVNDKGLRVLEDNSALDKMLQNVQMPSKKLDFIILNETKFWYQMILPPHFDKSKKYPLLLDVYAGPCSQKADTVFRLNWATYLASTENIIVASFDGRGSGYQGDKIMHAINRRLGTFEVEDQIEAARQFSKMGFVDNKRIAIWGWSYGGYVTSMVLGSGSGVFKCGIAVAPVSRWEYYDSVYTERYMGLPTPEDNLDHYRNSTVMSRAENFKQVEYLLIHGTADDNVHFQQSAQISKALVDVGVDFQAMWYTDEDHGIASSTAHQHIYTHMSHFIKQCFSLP

Broadly, the IC50 is the concentration that gives 50% inhibition. With `N#C[C@@H]1CCCN1C(=O)CN[C@H]1CC[C@@H](Cn2cnnn2)C1` [Example-61, (2S)-1-{2-[(1S,3R)-3-(1H-1,2,3,4-Tetrazol-1-ylmethyl)cyclopentylamino]acetyl}-pyrrolidine-2-carbonitrile], the IC50 is 11.4 nM.

For the molecule `N#C[C@@H]1CCCN1C(=O)CN[C@@H]1CC[C@H](Cn2nnc(-c3ccc(F)cc3)n2)C1` [Example-62, (2S)-1-(2-{(3S,1R)-3-[5-(4-Fluorophenyl)-2H-1,2,3,4-tetrazol-2-ylmethyl]cyclo-pentylamino}acetyl)pyrrolidine-2-carbonitrile], the IC50 came to 8.73 nM.

On to `N#C[C@@H]1CCCN1C(=O)CN[C@@H]1CC[C@H](CN2CCc3ccccc32)C1` [Example-63], for which the IC50 was found to be 21.9 nM.

Consider `N#Cc1cn(C[C@H]2CC[C@@H](NCC(=O)N3C[C@@H](F)C[C@H]3C#N)C2)c2ccccc12` [Example-64, 1-((1S,3R)-3-{2-[(2S,4S)-2-Cyano-4-fluoropyrrolidin-1-yl]-2-oxoethylamino}cyclo-pentylmethyl)-1H-3-indolecarbonitrile], for which the IC50 was determined as 5.81 nM.

As for `N#C[C@@H]1CCCN1C(=O)CN[C@@H]1CC[C@H](CN2Cc3ccccc3C2)C1` [Example-65, (2S)-1-{2-[(3S,1R)-3-(2,3-Dihydro-1H-2-isoindolylmethyl)cyclopentylamino]acetyl}-pyrrolidine-2-carbonitrile], the IC50 worked out at 13.2 nM.

Take `N#C[C@@H]1CCCN1C(=O)CN[C@H]1CC[C@@H](Cn2ncc3ccccc32)C1` [Example-67, (2S)-1-{2-[(1S,3R)-3-(1H-Indazol-1-ylmethyl)cyclopentylamino]acetyl}pyrrolidin-2-carbonitrile]: the IC50 was 22.3 nM.

Turning to `N#C[C@@H]1CCCN1C(=O)CN[C@H]1CC[C@@H](Cn2cc3ccccc3n2)C1` [Example-68, (2S)-1-{2-[(1S,3R)-3-(2H-Indazol-2-ylmethyl)cyclopentylamino]acetyl}pyrrolidin-2-carbonitrile], the IC50 came out at 19.2 nM.

For the molecule `N#C[C@@H]1CCCN1C(=O)CN[C@@H]1CC[C@H](Cn2cnc3ccccc32)C1` [Example-69, (2S)-1-{2-[(3S,1R)-3-(1H-Benzo[d]imidazol-1-ylmethyl)cyclopenylamino]acetyl}-pyrrolidine-2-carbonitrile], the IC50 worked out at 4.45 nM.

As for `N#C[C@@H]1CCCN1C(=O)CN[C@@H]1CC[C@H](Cn2nnc3ccccc32)C1` [Example-70, (2S)-1-{2-[(3S,1R)-3-(2H-Benzo[d][1,2,3]triazol-1-ylmethyl)cyclopentylamino]-acetyl}pyrrolidine-2-carbonitrile], the IC50 came out at 3.43 nM.

With `N#C[C@@H]1CCCN1C(=O)CN[C@@H]1CC[C@H](Cn2nc3ccccc3n2)C1` [Example-71, (2S)-1-{2-[(3S,1R)-3-(2H-benzo[d][1,2,3]triazol-2-ylmethyl)cyclopentylamino]-acetyl}pyrrolidine-2-carbonitrile], the IC50 came to 9.25 nM.
